Measured values published in publication PMC7026418, “The kinase polypharmacology landscape of clinical PARP inhibitors” (Scientific Reports, 2020).
Read-outs that look alike come from different tables or passages of the source. Values belong to the molecule of their own block, whether it stands above or below them.

Legend:
Assay in all cases: biochemical
Parameters in all cases: DiscoveRx KINOMEscan active site-directed competition binding; percent of control kinase bound to immobilised ligand
BMPR1B = BMPR1B (Homo sapiens, UniProt O00238)
Chain of BMPR1B (O00238 whole entry): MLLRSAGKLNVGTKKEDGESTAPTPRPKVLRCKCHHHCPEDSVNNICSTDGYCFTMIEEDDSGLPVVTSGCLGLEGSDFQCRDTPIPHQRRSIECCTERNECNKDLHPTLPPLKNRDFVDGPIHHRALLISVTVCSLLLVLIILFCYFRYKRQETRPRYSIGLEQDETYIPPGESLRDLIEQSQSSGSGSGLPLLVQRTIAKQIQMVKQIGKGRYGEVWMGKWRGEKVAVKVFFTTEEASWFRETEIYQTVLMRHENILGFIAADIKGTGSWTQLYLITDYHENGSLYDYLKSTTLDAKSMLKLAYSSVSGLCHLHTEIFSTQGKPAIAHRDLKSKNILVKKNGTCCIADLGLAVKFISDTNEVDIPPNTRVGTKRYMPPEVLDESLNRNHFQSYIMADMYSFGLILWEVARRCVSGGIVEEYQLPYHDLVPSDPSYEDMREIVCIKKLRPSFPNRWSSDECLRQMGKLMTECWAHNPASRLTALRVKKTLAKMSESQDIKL

ERK2 = target: T1, ERK2 (Homo sapiens, UniProt P28482)
T1 construct: gene MAPK1
T1 sequence (P28482 whole entry): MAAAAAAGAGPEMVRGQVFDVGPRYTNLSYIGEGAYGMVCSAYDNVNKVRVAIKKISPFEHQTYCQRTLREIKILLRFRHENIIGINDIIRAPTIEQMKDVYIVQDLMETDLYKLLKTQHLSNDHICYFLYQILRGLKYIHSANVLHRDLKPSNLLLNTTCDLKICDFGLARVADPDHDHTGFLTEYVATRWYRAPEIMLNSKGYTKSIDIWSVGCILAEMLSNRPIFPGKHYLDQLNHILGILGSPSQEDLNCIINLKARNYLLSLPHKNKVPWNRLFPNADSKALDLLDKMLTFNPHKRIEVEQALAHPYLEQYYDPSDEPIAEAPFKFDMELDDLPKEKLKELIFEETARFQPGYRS

GRK1 = target: T2, GRK1 (Homo sapiens, UniProt Q15835)
T2 sequence (Q15835 1-563): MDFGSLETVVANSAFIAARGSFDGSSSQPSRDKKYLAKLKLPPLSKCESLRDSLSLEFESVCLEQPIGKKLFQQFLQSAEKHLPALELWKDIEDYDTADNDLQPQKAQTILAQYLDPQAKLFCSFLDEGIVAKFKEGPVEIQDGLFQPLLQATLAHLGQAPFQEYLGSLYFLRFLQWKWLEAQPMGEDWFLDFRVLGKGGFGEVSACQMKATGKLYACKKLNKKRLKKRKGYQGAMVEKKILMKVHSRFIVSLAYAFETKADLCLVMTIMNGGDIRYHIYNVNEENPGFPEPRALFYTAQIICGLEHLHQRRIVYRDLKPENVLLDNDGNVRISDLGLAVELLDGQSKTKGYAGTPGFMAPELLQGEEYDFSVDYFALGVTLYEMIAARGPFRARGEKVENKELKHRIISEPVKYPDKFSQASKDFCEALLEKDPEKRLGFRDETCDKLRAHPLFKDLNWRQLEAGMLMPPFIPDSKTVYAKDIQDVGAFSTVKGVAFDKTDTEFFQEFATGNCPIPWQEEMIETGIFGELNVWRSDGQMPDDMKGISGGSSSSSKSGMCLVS

GRK7 = target: T3, GRK7 (Homo sapiens, UniProt Q8WTQ7)
T3 sequence (Q8WTQ7 1-553): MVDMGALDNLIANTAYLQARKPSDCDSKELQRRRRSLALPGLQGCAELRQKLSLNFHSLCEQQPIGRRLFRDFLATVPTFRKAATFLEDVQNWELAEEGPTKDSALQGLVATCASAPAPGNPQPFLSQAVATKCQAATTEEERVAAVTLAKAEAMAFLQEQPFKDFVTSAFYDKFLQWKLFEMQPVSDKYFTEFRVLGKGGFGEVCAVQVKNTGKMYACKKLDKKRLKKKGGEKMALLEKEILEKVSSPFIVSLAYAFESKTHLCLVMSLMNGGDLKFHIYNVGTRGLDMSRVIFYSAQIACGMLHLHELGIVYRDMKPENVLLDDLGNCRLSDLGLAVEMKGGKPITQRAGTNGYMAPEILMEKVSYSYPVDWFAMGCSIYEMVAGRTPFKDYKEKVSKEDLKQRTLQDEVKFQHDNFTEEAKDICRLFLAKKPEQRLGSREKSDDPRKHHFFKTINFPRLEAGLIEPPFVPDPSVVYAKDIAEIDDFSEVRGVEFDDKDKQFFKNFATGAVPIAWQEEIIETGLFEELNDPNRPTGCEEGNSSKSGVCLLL

MAP3K2 = target: T4, MAP3K2 (Homo sapiens, UniProt Q9Y2U5)
T4 sequence (Q9Y2U5 1-619): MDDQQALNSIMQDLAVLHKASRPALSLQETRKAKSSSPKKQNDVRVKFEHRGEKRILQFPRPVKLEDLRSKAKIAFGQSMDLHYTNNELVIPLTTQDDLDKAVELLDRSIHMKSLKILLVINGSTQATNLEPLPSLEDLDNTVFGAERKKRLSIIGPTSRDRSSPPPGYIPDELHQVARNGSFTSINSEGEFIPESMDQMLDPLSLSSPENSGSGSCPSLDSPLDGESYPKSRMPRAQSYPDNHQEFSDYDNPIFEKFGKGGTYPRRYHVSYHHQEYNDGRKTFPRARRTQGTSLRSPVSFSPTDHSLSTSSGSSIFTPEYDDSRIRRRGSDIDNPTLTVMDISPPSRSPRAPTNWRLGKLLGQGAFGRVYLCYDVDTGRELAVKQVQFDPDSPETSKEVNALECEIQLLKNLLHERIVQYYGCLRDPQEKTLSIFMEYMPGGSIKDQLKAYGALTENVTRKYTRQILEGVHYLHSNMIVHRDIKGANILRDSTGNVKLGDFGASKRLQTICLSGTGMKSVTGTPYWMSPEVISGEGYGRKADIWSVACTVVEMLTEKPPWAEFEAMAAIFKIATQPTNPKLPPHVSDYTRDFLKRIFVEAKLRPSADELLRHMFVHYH

MAP4K5 = MAP4K5 (Homo sapiens, UniProt Q9Y4K4)
Chain of MAP4K5 (Q9Y4K4 whole entry): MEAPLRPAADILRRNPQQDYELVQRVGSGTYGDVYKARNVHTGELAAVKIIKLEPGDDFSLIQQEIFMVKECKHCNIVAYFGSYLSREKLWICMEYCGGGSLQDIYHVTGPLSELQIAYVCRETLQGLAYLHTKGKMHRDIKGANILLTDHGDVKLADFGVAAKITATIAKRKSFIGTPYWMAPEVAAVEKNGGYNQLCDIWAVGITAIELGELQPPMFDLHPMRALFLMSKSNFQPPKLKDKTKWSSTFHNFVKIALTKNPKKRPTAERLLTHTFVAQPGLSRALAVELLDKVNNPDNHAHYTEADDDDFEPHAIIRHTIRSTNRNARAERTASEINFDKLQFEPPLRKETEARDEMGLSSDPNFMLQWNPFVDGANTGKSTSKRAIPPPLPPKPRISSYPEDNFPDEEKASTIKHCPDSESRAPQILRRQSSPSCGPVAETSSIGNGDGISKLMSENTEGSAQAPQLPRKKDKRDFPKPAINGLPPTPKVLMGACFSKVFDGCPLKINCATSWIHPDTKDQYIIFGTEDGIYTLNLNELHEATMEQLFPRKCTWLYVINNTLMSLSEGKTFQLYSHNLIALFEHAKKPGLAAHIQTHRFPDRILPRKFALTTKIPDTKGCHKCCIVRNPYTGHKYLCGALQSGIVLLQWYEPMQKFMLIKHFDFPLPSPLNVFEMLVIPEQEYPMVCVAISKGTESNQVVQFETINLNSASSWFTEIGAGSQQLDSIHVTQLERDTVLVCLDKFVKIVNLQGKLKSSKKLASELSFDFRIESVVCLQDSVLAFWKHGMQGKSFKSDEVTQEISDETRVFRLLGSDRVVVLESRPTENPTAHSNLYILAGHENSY

PFTK1 = target: T5, PFTK1 (Homo sapiens, UniProt O94921)
T5 construct: gene CDK14
T5 sequence (O94921 whole entry): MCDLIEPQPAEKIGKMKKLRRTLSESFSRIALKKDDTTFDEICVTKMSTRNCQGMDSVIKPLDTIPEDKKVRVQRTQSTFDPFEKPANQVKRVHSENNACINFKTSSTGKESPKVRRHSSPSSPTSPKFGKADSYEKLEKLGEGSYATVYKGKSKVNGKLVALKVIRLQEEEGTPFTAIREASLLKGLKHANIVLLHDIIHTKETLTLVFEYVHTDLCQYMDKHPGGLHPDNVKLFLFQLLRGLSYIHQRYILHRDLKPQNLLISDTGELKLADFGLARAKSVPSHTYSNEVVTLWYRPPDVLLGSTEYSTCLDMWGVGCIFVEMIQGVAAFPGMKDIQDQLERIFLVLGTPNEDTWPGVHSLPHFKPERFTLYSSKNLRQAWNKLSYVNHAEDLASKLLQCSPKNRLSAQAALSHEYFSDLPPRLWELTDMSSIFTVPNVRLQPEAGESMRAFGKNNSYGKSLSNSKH

RET(V804L) = RET(V804L) (Homo sapiens, UniProt P07949, V804L)
Chain of RET(V804L) (P07949 whole entry V804L): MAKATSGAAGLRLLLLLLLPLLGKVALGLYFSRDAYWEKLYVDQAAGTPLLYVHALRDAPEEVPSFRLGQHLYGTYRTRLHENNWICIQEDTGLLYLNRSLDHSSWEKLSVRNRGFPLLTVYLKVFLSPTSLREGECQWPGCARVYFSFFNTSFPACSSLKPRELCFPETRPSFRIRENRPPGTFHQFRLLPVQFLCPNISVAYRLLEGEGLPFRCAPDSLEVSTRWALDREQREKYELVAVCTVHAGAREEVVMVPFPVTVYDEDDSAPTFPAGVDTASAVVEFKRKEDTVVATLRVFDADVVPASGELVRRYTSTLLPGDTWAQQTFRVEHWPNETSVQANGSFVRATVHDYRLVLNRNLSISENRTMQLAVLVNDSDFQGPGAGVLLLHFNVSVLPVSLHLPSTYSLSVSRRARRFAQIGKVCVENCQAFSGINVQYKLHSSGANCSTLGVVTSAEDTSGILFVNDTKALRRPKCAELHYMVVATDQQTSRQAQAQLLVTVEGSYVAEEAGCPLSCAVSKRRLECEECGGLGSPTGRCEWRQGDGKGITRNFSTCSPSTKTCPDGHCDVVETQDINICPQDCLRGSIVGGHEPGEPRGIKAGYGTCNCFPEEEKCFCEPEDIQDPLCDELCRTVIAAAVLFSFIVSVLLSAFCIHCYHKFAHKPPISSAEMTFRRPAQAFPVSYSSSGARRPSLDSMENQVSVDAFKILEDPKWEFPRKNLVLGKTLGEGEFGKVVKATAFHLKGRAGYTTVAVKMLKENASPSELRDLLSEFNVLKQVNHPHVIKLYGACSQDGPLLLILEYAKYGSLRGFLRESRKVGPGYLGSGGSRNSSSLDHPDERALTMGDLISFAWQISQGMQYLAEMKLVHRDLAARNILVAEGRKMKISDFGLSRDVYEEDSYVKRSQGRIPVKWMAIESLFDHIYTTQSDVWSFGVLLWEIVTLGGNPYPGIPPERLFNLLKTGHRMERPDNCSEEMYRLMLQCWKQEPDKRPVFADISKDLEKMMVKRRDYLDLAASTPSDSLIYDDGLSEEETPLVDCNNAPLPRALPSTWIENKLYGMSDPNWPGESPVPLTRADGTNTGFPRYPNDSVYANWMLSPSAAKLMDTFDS

[1] = target: T6, RSK2(Kin.Dom.2-C-terminal) (Homo sapiens, UniProt P51812)
T6 construct: gene RPS6KA3; Kin.Dom.2-C-terminal
T6 sequence (P51812 whole entry): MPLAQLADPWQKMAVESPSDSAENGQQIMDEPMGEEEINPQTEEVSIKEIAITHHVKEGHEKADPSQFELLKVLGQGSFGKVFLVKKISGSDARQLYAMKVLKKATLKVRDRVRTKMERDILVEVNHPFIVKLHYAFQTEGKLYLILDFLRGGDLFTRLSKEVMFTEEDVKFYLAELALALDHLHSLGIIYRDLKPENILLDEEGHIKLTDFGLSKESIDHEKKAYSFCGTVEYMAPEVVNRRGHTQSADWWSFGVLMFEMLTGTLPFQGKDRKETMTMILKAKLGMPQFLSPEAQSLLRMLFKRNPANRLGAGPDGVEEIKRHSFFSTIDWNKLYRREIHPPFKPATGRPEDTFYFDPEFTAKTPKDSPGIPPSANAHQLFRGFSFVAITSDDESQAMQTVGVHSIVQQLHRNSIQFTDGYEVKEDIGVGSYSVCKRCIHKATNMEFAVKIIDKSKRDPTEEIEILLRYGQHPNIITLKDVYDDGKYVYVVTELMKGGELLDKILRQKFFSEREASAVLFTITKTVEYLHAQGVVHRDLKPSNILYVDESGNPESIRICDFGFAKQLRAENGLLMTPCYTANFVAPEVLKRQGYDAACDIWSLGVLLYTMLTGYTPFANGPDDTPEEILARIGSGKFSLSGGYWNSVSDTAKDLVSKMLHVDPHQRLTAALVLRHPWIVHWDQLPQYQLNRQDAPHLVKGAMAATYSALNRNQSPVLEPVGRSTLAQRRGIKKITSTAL

SRC = SRC (Homo sapiens, UniProt P12931)
Chain of SRC (P12931 whole entry): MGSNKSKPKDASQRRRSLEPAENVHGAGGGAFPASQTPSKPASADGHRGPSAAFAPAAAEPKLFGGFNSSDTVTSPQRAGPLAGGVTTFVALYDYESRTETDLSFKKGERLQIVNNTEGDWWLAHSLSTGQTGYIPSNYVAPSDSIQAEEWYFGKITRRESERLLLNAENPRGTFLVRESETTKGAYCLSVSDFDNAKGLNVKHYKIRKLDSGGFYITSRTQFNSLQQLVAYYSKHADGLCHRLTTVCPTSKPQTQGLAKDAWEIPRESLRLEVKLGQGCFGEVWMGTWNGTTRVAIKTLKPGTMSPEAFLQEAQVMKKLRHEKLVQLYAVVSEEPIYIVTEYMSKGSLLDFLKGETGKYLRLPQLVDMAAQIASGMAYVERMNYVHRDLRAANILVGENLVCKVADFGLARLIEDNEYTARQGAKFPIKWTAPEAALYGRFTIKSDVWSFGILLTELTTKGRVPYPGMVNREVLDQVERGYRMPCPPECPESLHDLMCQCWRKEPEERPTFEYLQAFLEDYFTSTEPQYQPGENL

[2] = read-out: Niraparib (MK-4827) / %Ctrl @ 10000nM
[3] = read-out: Rucaparib / %Ctrl @ 10000nM, binding competition, % of control
[4] = read-out: Olaparib / %Ctrl @ 10000nM
[5] = read-out: Talazoparib (BMN 673) / %Ctrl @ 10000nM

Structure (SMILES): NC(=O)c1cccc2cn(-c3ccc([C@@H]4CCCNC4)cc3)nc12 [Niraparib]
percent of control binding at 10 µM (BMPR1B; [2]): 87%
percent of control binding at 10 µM (ERK2; [2]): 93%
percent of control binding at 10 µM (GRK1; [2]): 95%
percent of control binding at 10 µM (GRK7; [2]): 88%
percent of control binding at 10 µM (MAP3K2; [2]): 97%
percent of control binding at 10 µM (MAP4K5; [2]): 100%
percent of control binding at 10 µM (PFTK1; [2]): 88%
percent of control binding at 10 µM (RET(V804L); [2]): 92%
percent of control binding at 10 µM [1, 2]: 100%
percent of control binding at 10 µM (SRC; [2]): 94%

percent of control binding at 10 µM (BMPR1B; [3]): 80%
percent of control binding at 10 µM (ERK2; [3]): 94%
percent of control binding at 10 µM (GRK1; [3]): 64%
percent of control binding at 10 µM (GRK7; [3]): 48%
percent of control binding at 10 µM (MAP3K2; [3]): 82%
percent of control binding at 10 µM (MAP4K5; [3]): 98%
percent of control binding at 10 µM (PFTK1; [3]): 86%
percent of control binding at 10 µM (RET(V804L); [3]): 95%
percent of control binding at 10 µM [1, 3]: 64%
percent of control binding at 10 µM (SRC; [3]): 99%
Structure (SMILES): CNCc1ccc(-c2[nH]c3cc(F)cc4c3c2CCNC4=O)cc1 [Rucaparib]

percent of control binding at 10 µM (BMPR1B; [4]): 81%
percent of control binding at 10 µM (ERK2; [4]): 93%
percent of control binding at 10 µM (GRK1; [4]): 91%
percent of control binding at 10 µM (GRK7; [4]): 85%
percent of control binding at 10 µM (MAP3K2; [4]): 92%
percent of control binding at 10 µM (MAP4K5; [4]): 96%
percent of control binding at 10 µM (PFTK1; [4]): 100%
percent of control binding at 10 µM (RET(V804L); [4]): 100%
percent of control binding at 10 µM [1, 4]: 72%
percent of control binding at 10 µM (SRC; [4]): 100%
Structure (SMILES): O=C(c1cc(Cc2n[nH]c(=O)c3ccccc23)ccc1F)N1CCN(C(=O)C2CC2)CC1 [Olaparib]

percent of control binding at 10 µM (BMPR1B; [5]): 100%
percent of control binding at 10 µM (ERK2; [5]): 100%
percent of control binding at 10 µM (GRK1; [5]): 100%
percent of control binding at 10 µM (GRK7; [5]): 100%
percent of control binding at 10 µM (MAP3K2; [5]): 98%
percent of control binding at 10 µM (MAP4K5; [5]): 100%
percent of control binding at 10 µM (PFTK1; [5]): 89%
percent of control binding at 10 µM (RET(V804L); [5]): 96%
percent of control binding at 10 µM [1, 5]: 100%
percent of control binding at 10 µM (SRC; [5]): 93%
Structure (SMILES): Cn1ncnc1[C@H]1c2n[nH]c(=O)c3cc(F)cc(c23)N[C@@H]1c1ccc(F)cc1 [Talazoparib]
